The values that follow are results of earlier work, collected in patent EP0557244B1, “Dosage forms having prolonged active-ingredient release” (Siegfried Pharma AG, priority 1992, dated 1993).

Read-outs that look alike come from different tables or passages of the source.

Where [1] appears, read: 20 mg of crystalline nifedipine, Pabst et al.
[2] abbreviates: 20 mg of dissolved nifedipine in capsules, Pabst et al.

In the case of `COC(=O)C1=C(C)NC(C)=C(C(=O)OC)C1c1ccccc1[N+](=O)[O-]` [nifedipine], the plasma level peaks result by setting is: under setting [1], “about 40 ng/ml”; under setting [2], “about 200 ng/ml”; (tablet containing 40 mg of nifedipine (EP 220 760), initially) “more than 60 ng/ml”. The “time of plasma level peaks” value runs as follows: under setting [1], “about 1.5 hours”; under setting [2], “about 30 minutes”.
